From PubChem BioAssay (NCI)
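Tested at 5 concentrations; 48 h exposure; 96-well plates; endpoints linearly interpolated, else capped at highest concentration. The concentration for 50% growth inhibition is given as GI50. TGI marks complete inhibition of growth.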

Key:
Assay in all cases: DTP human tumour cell line panel, 48 h
786-0 renal = test system: 786-0 renal
A498 renal = test system: A498 renal
A549 NSCLC = test system: A549 NSCLC
ACHN renal = test system: ACHN renal
BT-549 breast = test system: BT-549 breast
CAKI-1 renal = test system: CAKI-1 renal
CCRF-CEM leukemia = test system: CCRF-CEM leukemia
COLO 205 colon = test system: COLO 205 colon
DU-145 prostate = test system: DU-145 prostate
EKVX NSCLC = test system: EKVX NSCLC
HCC-2998 colon = test system: HCC-2998 colon
HCT-116 colon = test system: HCT-116 colon
HCT-15 colon = test system: HCT-15 colon
HL-60(TB) leukemia = test system: HL-60(TB) leukemia
HOP-62 NSCLC = test system: HOP-62 NSCLC
HOP-92 NSCLC = test system: HOP-92 NSCLC
HS 578T breast = test system: HS 578T breast
HT29 colon = test system: HT29 colon
IGROV1 ovarian = test system: IGROV1 ovarian
K-562 leukemia = test system: K-562 leukemia
KM12 colon = test system: KM12 colon
LOX IMVI melanoma = test system: LOX IMVI melanoma
M14 melanoma = test system: M14 melanoma
MALME-3M melanoma = test system: MALME-3M melanoma
MCF7 breast = test system: MCF7 breast
MDA-MB-231 breast = test system: MDA-MB-231 breast
MDA-MB-435 = test system: MDA-MB-435
MOLT-4 leukemia = test system: MOLT-4 leukemia
NCI-H226 lung = test system: NCI-H226 lung
NCI-H23 lung = test system: NCI-H23 lung
NCI-H460 lung = test system: NCI-H460 lung
NCI-H522 lung = test system: NCI-H522 lung
NCI/ADR-RES ovarian = test system: NCI/ADR-RES ovarian
OVCAR-3 ovarian = test system: OVCAR-3 ovarian
OVCAR-4 ovarian = test system: OVCAR-4 ovarian
OVCAR-5 ovarian = test system: OVCAR-5 ovarian
OVCAR-8 ovarian = test system: OVCAR-8 ovarian
PC-3 prostate = test system: PC-3 prostate
RPMI-8226 leukemia = test system: RPMI-8226 leukemia
RXF 393 renal = test system: RXF 393 renal
SF-268 CNS = test system: SF-268 CNS
SF-295 CNS = test system: SF-295 CNS
SF-539 CNS = test system: SF-539 CNS
SK-MEL-2 melanoma = test system: SK-MEL-2 melanoma
SK-MEL-28 melanoma = test system: SK-MEL-28 melanoma
SK-MEL-5 melanoma = test system: SK-MEL-5 melanoma
SK-OV-3 ovarian = test system: SK-OV-3 ovarian
SN12C renal = test system: SN12C renal
SNB-19 CNS = test system: SNB-19 CNS
SNB-75 CNS = test system: SNB-75 CNS
SR leukemia = test system: SR leukemia
SW-620 colon = test system: SW-620 colon
T-47D breast = test system: T-47D breast
TK-10 renal = test system: TK-10 renal
U251 CNS = test system: U251 CNS
UACC-257 melanoma = test system: UACC-257 melanoma
UACC-62 melanoma = test system: UACC-62 melanoma
UO-31 renal = test system: UO-31 renal

## O=c1oc2ccc(Br)cc2c(=O)n1-c1ccc(Br)cc1F
786-0 renal
  GI50: 2060 nM
  TGI: 4.91 µM
A498 renal
  GI50: 245 nM
  TGI: 774 nM
A549 NSCLC
  GI50: 2050 nM
  TGI: > 35.5 µM
ACHN renal
  GI50: 933 nM
  TGI: 8.46 µM
BT-549 breast
  GI50: 452 nM
  TGI: 2200 nM
CAKI-1 renal
  GI50: 507 nM
  TGI: 3.93 µM
CCRF-CEM leukemia
  GI50: 1000 nM
  TGI: 4.95 µM
COLO 205 colon
  GI50: 3.72 µM
  TGI: 14 µM
DU-145 prostate
  GI50: 1140 nM
  TGI: 21.4 µM
EKVX NSCLC
  GI50: 1510 nM
  TGI: 8.24 µM
HCC-2998 colon
  GI50: 2470 nM
  TGI: 8.04 µM
HCT-116 colon
  GI50: 555 nM
  TGI: 2100 nM
HCT-15 colon
  GI50: 733 nM
  TGI: 7.02 µM
HL-60(TB) leukemia
  GI50: 538 nM
  TGI: 2530 nM
HOP-62 NSCLC
  GI50: 1350 nM
  TGI: 4.79 µM
HOP-92 NSCLC
  GI50: 191 nM
  TGI: 683 nM
HS 578T breast
  GI50: 380 nM
  TGI: 3.79 µM
HT29 colon
  GI50: 3.09 µM
  TGI: 12.7 µM
IGROV1 ovarian
  GI50: 337 nM
  TGI: 11.9 µM
K-562 leukemia
  GI50: 465 nM
  TGI: > 100 µM
KM12 colon
  GI50: 2060 nM
  TGI: 4.93 µM
LOX IMVI melanoma
  GI50: 469 nM
  TGI: 2540 nM
M14 melanoma
  GI50: 816 nM
  TGI: 3.59 µM
MALME-3M melanoma
  GI50: 436 nM
  TGI: 2550 nM
MCF7 breast
  GI50: 1070 nM
  TGI: 8.17 µM
MDA-MB-231 breast
  GI50: 551 nM
  TGI: 4.81 µM
MDA-MB-435
  GI50: 640 nM
  TGI: 8.87 µM
MOLT-4 leukemia
  GI50: 1310 nM
  TGI: 4.16 µM
NCI-H226 lung
  GI50: 1260 nM
  TGI: 4.72 µM
NCI-H23 lung
  GI50: 369 nM
  TGI: 2650 nM
NCI-H460 lung
  GI50: 511 nM
  TGI: 11.1 µM
NCI-H522 lung
  GI50: 351 nM
  TGI: 2920 nM
NCI/ADR-RES ovarian
  GI50: 553 nM
  TGI: 4.33 µM
OVCAR-3 ovarian
  GI50: 477 nM
  TGI: 6.62 µM
OVCAR-4 ovarian
  GI50: 539 nM
  TGI: > 100 µM
OVCAR-5 ovarian
  GI50: 3.1 µM
  TGI: 48.1 µM
OVCAR-8 ovarian
  GI50: 1220 nM
  TGI: 9.14 µM
PC-3 prostate
  GI50: 864 nM
  TGI: 6.77 µM
RPMI-8226 leukemia
  GI50: 264 nM
  TGI: 1060 nM
RXF 393 renal
  GI50: 680 nM
  TGI: 3.73 µM
SF-268 CNS
  GI50: 688 nM
  TGI: 7.1 µM
SF-295 CNS
  GI50: 1490 nM
  TGI: 3.29 µM
SF-539 CNS
  GI50: 501 nM
  TGI: 3.54 µM
SK-MEL-2 melanoma
  GI50: 371 nM
  TGI: 1880 nM
SK-MEL-28 melanoma
  GI50: 392 nM
  TGI: 1950 nM
SK-MEL-5 melanoma
  GI50: 269 nM
  TGI: 853 nM
SK-OV-3 ovarian
  GI50: 560 nM
  TGI: 4.97 µM
SN12C renal
  GI50: 458 nM
  TGI: 3.62 µM
SNB-19 CNS
  GI50: 378 nM
  TGI: 46.7 µM
SNB-75 CNS
  GI50: 289 nM
  TGI: 2450 nM
SR leukemia
  GI50: 712 nM
  TGI: 6.88 µM
SW-620 colon
  GI50: 1220 nM
  TGI: 11.2 µM
T-47D breast
  GI50: 341 nM
  TGI: 3.84 µM
TK-10 renal
  GI50: 2860 nM
  TGI: 12.8 µM
U251 CNS
  GI50: 725 nM
  TGI: 9.82 µM
UACC-257 melanoma
  GI50: 640 nM
  TGI: 3.76 µM
UACC-62 melanoma
  GI50: 223 nM
  TGI: 772 nM
UO-31 renal
  GI50: 442 nM
  TGI: 2480 nM
